Assay results: PubChem BioAssay (NCI)
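Dose response: 5 concentrations. Exposure: 48 h. Format: 96-well plates. Endpoint: linear interpolation; highest concentration if not reached. TGI denotes the concentration required for complete inhibition of growth.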

Key:
Assay in all cases: inhibition of tumour cell growth, NCI panel, 48 h
[1] = tested on: OVCAR-3 ovarian
[2] = tested on: CCRF-CEM leukemia
[3] = tested on: M14 melanoma
[4] = tested on: SK-MEL-28 melanoma
[5] = tested on: 786-0 renal
[6] = tested on: NCI-H23 lung
[7] = tested on: MOLT-4 leukemia
[8] = tested on: NCI-H226 lung
[9] = tested on: UACC-257 melanoma
[10] = tested on: SN12C renal

Row | Structure (SMILES) | TGI [1] [µM] | TGI [2] [µM] | TGI [3] [µM] | TGI [4] [µM] | TGI [5] [µM] | TGI [6] [µM] | TGI [7] [µM] | TGI [8] [µM] | TGI [9] [µM] | TGI [10] [µM]
1 | O=[N+]([O-])c1cccc(-c2csc(N=Nc3c(O)[nH]c4ccccc34)n2)c1 | > 100 | 56.5 | > 100 | 36.1 | 29.8 | > 100 | 69.6 | 47.6 | 41.3 | 49.7
2 | CC(C)(CN)CN | > 100 | > 100 | > 100 | > 100 | > 100 | > 100 | > 100 | > 100 | > 100 | > 100
3 | CC(=O)c1ccc(N=Nc2ccc3nonc3c2N)cc1 | > 100 | > 100 | > 100 | > 100 | > 100 | > 100 | > 100 | > 100 | > 100 | > 100
4 | CSc1c(C(=O)Nc2ccccc2)c(N)nn1-c1ccccc1 | > 100 | > 100 | > 100 | > 100 | > 100 | > 100 | > 100 | > 100 | > 100 | > 100
5 | CCNC(=O)Nc1cccc(C)n1 | > 100 | > 100 | > 100 | > 100 | > 100 | > 100 | > 100 | > 100 | > 100 | > 100
6 | Cc1ccc(S(=O)(=O)N/C(=C\C=C\c2ccccc2)C(=O)C(C)(C)C)cc1 | > 100 | > 100 | > 100 | > 100 | 73.6 | > 100 | > 100 | > 100 | > 100 | > 100
7 | c1ccc(CNc2c3c(nc4ccccc24)CCC3)cc1 | 30.8 | 20.9 | 27.2 | 24.3 | 28.5 | 46.2 | 51 | 35.9 | 29.3 | 34.9
8 | Cc1ccc(F)cc1NC(=O)O/N=C(\Cl)C(C)C | 13.9 | > 39.5 | 12.2 | 38 | 15.7 | > 56.9 | 4.83 | 28.5 | 46.7 | 11.4
9 | CCCCOC(=O)C(=O)C(CCC(=O)c1ccc(C)cc1)C(=O)C=C(C)C (stereo not given) | > 100 | > 100 | > 100 | > 100 | > 100 | > 100 | > 100 | > 100 | > 100 | > 100
10 | COc1ccc2nc3cc(Cl)ccc3c(NCCCCCC(=O)NC(COc3cnc4c(ccc5cccnc54)c3)COc3cnc4c(ccc5cccnc54)c3)c2c1 | 34.6 | 12.6 | > 100 | > 100 | 28.1 | > 100 | 11.6 | 21.8 | 31.4 | > 100
11 | COc1cc2c(cc1C[N+](C)(C)CSc1ccccc1)-c1ccccc1CC2 | 13 | 14.3 | 7.95 | > 35.1 | 19.6 | 14.4 | 9.59 | 23.6 | 12.3 | 19.2
12 | O=C(Nc1sccc1S(=O)(=O)c1ccccc1)c1cccnc1 | > 100 | > 24.5 | > 100 | > 100 | > 100 | > 80.2 | > 100 | > 59.3 | > 100 | > 100
13 | Cn1c(=O)c2c(nc(NCCCCl)n2CC(=O)O)n(C)c1=O | > 100 | > 100 | > 100 | > 100 | > 100 | > 100 | > 100 | > 100 | > 100 | > 100
14 | COC(=O)/C=C/c1ccccc1N=[S@](C)(=O)c1ccc(C)cc1 | 55.8 | 44.2 | 55.1 | > 100 | > 100 | > 100 | > 100 | > 100 | 56.8 | > 100
15 | COc1ccc2c(c1)OC(c1cccnc1)C(c1ccccc1)C2=O (stereo not given) | > 100 | > 100 | > 100 | > 100 | > 100 | > 100 | > 100 | > 100 | > 100 | > 100
16 | COc1cc(-c2nc3cc(F)ccc3s2)ccc1O | 79.1 | > 100 | > 100 | > 100 | > 100 | > 100 | > 100 | > 100 | 66.3 | > 100
17 | COc1ccc2c(c1)O[C@@H]1C(O)Oc3cc(OC)c(OC)cc3[C@]1(O)C2=O (stereo not given in full) | > 100 | > 100 | > 100 | > 100 | > 100 | > 100 | > 100 | 83.9 | > 100 | > 100
18 | CCC(C)[C@H](NC(=O)N[C@H](C)c1ccccc1)C(=O)OC (stereo not given in full) | > 100 | > 100 | > 100 | > 100 | > 100 | > 100 | > 100 | > 100 | > 100 | > 100
19 | CSc1nc(NC2CCCC2)c2cc[nH]c2n1 | > 100 | > 100 | > 100 | > 100 | > 100 | > 100 | > 100 | > 100 | > 100 | > 100
20 | Cn1ccnc1Sc1ccc(/C=N/NC(=O)c2ccccc2O)cc1[N+](=O)[O-] | > 100 | > 100 | > 100 | > 100 | > 100 | > 100 | 13.3 | > 100 | > 100 | > 100
21 | CN(C)c1ccc(/C=N/Nc2nc3ccccc3c(=O)n2-c2ccccc2)cc1 | > 100 | > 100 | > 100 | > 100 | 83.3 | > 100 | > 100 | > 100 | > 100 | > 100
